{"source": "ChEMBL document CHEMBL3714751", "about": "“Diaminopyrimidines as P2X3 and P2X2/3 modulators” (2009)", "note": "Activity calls are given as the source filed them. The calls are words filed in the database; no cut-off is given here."}
{"tested_on": "Canis familiaris", "assay": "Cmax in dog assessed as 5-(5-Iodo-2-iso-propyl-4-methoxy-phenoxy)-pyrimidine-2,4-diamine level at 0.127 mmol administered orally by gavage after 24 hrs by HPLC method", "format": "ADME, organism-based, Canis lupus familiaris", "parameters": "dose 0.127 mmol, route oral", "settings": "in vivo, po", "units": {"Cmax": "ng/mL"}}
{"smiles": "CCCN(CCC)CC(=O)Nc1ncc(Oc2cc(I)c(OC)cc2C(C)C)c(N)n1", "Cmax": 120}
{"tested_on": "Canis familiaris", "assay": "AUC in dog assessed as 5-(5-Iodo-2-iso-propyl-4-methoxy-phenoxy)-pyrimidine-2,4-diamine level at 0.127 mmol administered orally by gavage after 24 hrs by HPLC method", "format": "ADME, organism-based, Canis lupus familiaris", "parameters": "dose 0.127 mmol, time < 24 hr, route oral", "settings": "in vivo, po", "units": {"AUC": "ng·h/mL"}}
{"smiles": "CCCN(CCC)CC(=O)Nc1ncc(Oc2cc(I)c(OC)cc2C(C)C)c(N)n1", "AUC": 372}
{"biological_target": "T1, P2X purinoceptor 3 (Rattus norvegicus) (UniProt P49654)", "T1 sequence (whole entry)": "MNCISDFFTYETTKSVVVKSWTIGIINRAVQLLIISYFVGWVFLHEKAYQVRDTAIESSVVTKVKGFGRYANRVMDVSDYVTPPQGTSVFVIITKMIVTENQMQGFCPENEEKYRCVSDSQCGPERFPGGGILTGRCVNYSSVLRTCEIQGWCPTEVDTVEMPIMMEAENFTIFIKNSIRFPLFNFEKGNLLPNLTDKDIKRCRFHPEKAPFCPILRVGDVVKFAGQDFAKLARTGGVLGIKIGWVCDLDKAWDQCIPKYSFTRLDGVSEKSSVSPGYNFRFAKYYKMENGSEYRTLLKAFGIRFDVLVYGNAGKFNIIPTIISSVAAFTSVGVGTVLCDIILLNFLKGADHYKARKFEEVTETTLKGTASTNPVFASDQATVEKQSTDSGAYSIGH", "assay": "Antagonist activity against rat P2X3 receptor expressed in CHOK1 cells assessed as inhibition of alpha,beta-meATP-induced calcium response incubated for 20 mins by Fluo-3AM dye based FLIPR assay", "format": "functional, cell-based", "settings": "CHO-K1"}
{"smiles": "COc1cc(C(C)C)c(Oc2cnc(NC(=O)CNC3CCC(C)CC3)nc2N)cc1I", "note": "(stereo not drawn)", "inhibition": "Active"}
{"smiles": "COc1cc(C(C)C)c(Oc2cnc(NC(=O)CNCC(C)C)nc2N)cc1I", "inhibition": "Active"}
{"smiles": "COc1cc(C(C)C)c(Oc2cnc(NC(=O)CN3CCC(C(C)=O)CC3)nc2N)cc1I", "inhibition": "Active"}
{"smiles": "COc1cc(C(C)C)c(Oc2cnc(NC(=O)CN3CCN(CCCO)CC3)nc2N)cc1I", "inhibition": "Active"}
{"smiles": "COc1cc(C(C)C)c(Oc2cnc(NC(=O)CN3CCC(N)CC3)nc2N)cc1I", "inhibition": "Active"}
{"smiles": "CCCN(CCC)CC(=O)Nc1ncc(Oc2cc(I)c(OC)cc2C(C)C)c(N)n1", "inhibition": "Active"}
{"smiles": "COc1cc(C(C)C)c(Oc2cnc(NC(=O)CN(C)C)nc2N)cc1I", "inhibition": "Active"}
{"smiles": "COc1cc(C(C)C)c(Oc2cnc(NC(=O)CNC(C)(C)C)nc2N)cc1I", "inhibition": "Active"}
{"smiles": "COc1cc(C(C)C)c(Oc2cnc(NC(=O)CN3CC(C)OC(C)C3)nc2N)cc1I", "note": "(stereo not drawn)", "inhibition": "Active"}
{"smiles": "COc1cc(C(C)C)c(Oc2cnc(NC(=O)CN3CCNCC3)nc2N)cc1I", "inhibition": "Active"}
{"smiles": "COc1cc(C(C)C)c(Oc2cnc(NC(=O)CNC3CCCC3)nc2N)cc1I", "inhibition": "Active"}
{"smiles": "CCCNCC(=O)Nc1ncc(Oc2cc(I)c(OC)cc2C(C)C)c(N)n1", "inhibition": "Active"}
{"smiles": "COc1cc(C(C)C)c(Oc2cnc(NC(=O)CN3CCOCC3)nc2N)cc1I", "inhibition": "Active"}
{"smiles": "COc1cc(C(C)C)c(Oc2cnc(NC(=O)CN3CCN(C)CC3)nc2N)cc1I", "inhibition": "Active"}
{"smiles": "COc1cc(C(C)C)c(Oc2cnc(NC(=O)CN(C)C3CCCCC3)nc2N)cc1I", "inhibition": "Active"}
{"smiles": "COc1cc(C(C)C)c(Oc2cnc(NC(=O)CNC3CCC3)nc2N)cc1I", "inhibition": "Active"}
{"smiles": "COc1cc(C(C)C)c(Oc2cnc(NC(=O)CN3CCN(CCO)CC3)nc2N)cc1I", "inhibition": "Active"}
{"smiles": "C#Cc1cc(Oc2cnc(NC(=O)CN3CCN(C)CC3)nc2N)c(C(C)C)cc1OC", "inhibition": "Active"}
{"smiles": "COc1cc(C(C)C)c(Oc2cnc(NC(=O)CN3CCCCC3)nc2N)cc1I", "inhibition": "Active"}
{"smiles": "COCCNCC(=O)Nc1ncc(Oc2cc(I)c(OC)cc2C(C)C)c(N)n1", "inhibition": "Active"}
{"smiles": "CCN(CCCCO)CC(=O)Nc1ncc(Oc2cc(I)c(OC)cc2C(C)C)c(N)n1", "inhibition": "Active"}
{"smiles": "COc1cc(C(C)C)c(Oc2cnc(NC(=O)CNC3CCN(C)CC3)nc2N)cc1I", "inhibition": "Active"}
{"smiles": "COc1cc(C(C)C)c(Oc2cnc(NC(=O)CN3CCCC3)nc2N)cc1I", "inhibition": "Active"}
{"smiles": "COc1cc(C(C)C)c(Oc2cnc(NC(=O)CNC3CCCCC3)nc2N)cc1I", "inhibition": "Active"}
{"smiles": "CCC(CC)NCC(=O)Nc1ncc(Oc2cc(I)c(OC)cc2C(C)C)c(N)n1", "inhibition": "Active"}
{"smiles": "COc1cc(C(C)C)c(Oc2cnc(NC(=O)CNCC3CC3)nc2N)cc1I", "inhibition": "Active"}
